# Data as given in patent US9416126B2, “Compounds inhibiting leucine-rich repeat kinase enzyme activity” (Merck Sharp & Dohme Corp., priority 2013, dated 2016).
# Legend:
# Assay type in all cases: biochemical
# [1] = biological target: T1, LRRK2(G2019S mutation, GST-LRRK2(amino acids 970-2527)) (Homo sapiens (Human), UniProt Q5S007, G2019S); test: LRRK2 Km ATP LanthaScreen Assay
# Summary of the method: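 TR-FRET: GST-LRRK2 970-2527 G2019S (2.5 nM solution) preincubated 30 min with compound (98 μM top, 1:2.15 dilutions), then 800 nM fluorescein-LRRKtide and 184 μM ATP solution added for 60 min at room temperature in Tris pH 8.5 buffer. Stopped with EDTA and Tb anti-phospho-LRRKtide antibody; IC50 is a mean of several tests.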
# [2] = biological target: T1, LRRK2(G2019S mutation, GST-LRRK2(amino acids 970-2527)); test: LRRK2 5 mM ATP LanthaScreen Assay
# Experimental: The data presented for the 5 mM and Km ATP LanthaScreen™ Assay represents mean IC50 values based on several test results and may have reasonable. deviations depending on the specific conditions and reagents used. Reagents for the LRRK2 5 mM and Km ATP LanthaScreen™ Assay were purchased from Life Technologies Corporation.
# LRRK2 5 mM ATP LanthaScreen™ Assay
# a) 400 nl of a 1:2.15 serial dilution of test compound(98 μM top assay concentration) is spotted via Labcyte Echo to certain wells in a 384 well black, untreated plate. Control wells contain 400 nl of either DMSO or 400 nl of a known inhibitor in DMSO.
# b) 10 μl of a 2.5 nM LRRK2(G2019S mutation, GST-LRRK2(amino acids 970-2527)) enzyme solution in 1× assay buffer(50 mM Tris pH 8.5, 10 mM MgCl2, 0.01% Brij-35, 1.0 mM EGTA, 2 mM DTT, 0.05 mM NaVO4) is added to all wells.
# c) A 30 minute room temperature incubation is followed by addition of 10 μl of 800 nM fluorescein labeled LRRKtide peptide substrate and 10 mM ATP solution in 1× assay buffer to all wells.
# d) After a 35 minute room temperature incubation, 20 μl of TR-FRET Dilution Buffer(Invitrogen PV3756B) containing 4 nM Tb-labeled anti-phospho LRRKtide antibody and 20 mM EDTA is added to all wells.
# e) Plates are incubated at room temperature for 1 hour and read on an Envision™ multi-mode plate reader with LanthaScreen™ settings. Results are analysed using Assay Data Analyzer.
# kinases [3] = biological target: kinases (Homo sapiens, UniProt P15056, V600E); test: Kinase selectivity using Z'-LYTE or Adapta; conditions: 1 μM of Example; Z-LYTE platform
# kinases [4] = test: Kinase selectivity using Z'-LYTE or Adapta; conditions: 1 μM of Example; for percent inhibition IRAK1: Adapta platform; for percent inhibition AURKB (Aurora B) / percent inhibition CDK1/cyclin B / percent inhibition CHEK2 (CHK2) / percent inhibition CLK2 / percent inhibition DYRK1A / percent inhibition JAK3 / percent inhibition MAPK1 (ERK2) / percent inhibition MAPK8 (JNK1): Z-LYTE platform
# [5] = Km ATP (184 μM ATP solution), G2019S LRRK2, mean IC50
# kinases (Homo sapiens, UniProt P15056, V600E), sequence (P15056 2-766 V600E limits assumed): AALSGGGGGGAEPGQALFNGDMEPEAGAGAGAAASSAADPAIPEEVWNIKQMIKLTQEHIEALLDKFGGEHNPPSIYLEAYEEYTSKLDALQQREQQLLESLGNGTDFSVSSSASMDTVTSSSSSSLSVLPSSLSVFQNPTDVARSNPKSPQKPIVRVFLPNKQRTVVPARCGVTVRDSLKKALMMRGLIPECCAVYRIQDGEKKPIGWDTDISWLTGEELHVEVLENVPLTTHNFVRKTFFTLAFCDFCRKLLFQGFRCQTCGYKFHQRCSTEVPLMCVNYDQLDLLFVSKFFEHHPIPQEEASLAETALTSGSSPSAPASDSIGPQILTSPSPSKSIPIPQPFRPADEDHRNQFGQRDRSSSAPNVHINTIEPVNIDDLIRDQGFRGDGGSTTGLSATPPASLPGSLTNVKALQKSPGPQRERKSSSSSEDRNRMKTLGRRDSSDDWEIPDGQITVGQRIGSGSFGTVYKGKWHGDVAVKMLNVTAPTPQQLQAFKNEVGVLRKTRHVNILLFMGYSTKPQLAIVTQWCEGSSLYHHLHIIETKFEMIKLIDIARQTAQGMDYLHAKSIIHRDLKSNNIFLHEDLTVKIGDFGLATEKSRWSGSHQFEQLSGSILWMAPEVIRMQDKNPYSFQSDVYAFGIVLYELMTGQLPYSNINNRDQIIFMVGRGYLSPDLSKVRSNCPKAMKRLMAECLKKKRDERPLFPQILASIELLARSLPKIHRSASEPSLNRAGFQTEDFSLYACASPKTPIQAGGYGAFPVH
# T1 sequence (Q5S007 970-2527 G2019S): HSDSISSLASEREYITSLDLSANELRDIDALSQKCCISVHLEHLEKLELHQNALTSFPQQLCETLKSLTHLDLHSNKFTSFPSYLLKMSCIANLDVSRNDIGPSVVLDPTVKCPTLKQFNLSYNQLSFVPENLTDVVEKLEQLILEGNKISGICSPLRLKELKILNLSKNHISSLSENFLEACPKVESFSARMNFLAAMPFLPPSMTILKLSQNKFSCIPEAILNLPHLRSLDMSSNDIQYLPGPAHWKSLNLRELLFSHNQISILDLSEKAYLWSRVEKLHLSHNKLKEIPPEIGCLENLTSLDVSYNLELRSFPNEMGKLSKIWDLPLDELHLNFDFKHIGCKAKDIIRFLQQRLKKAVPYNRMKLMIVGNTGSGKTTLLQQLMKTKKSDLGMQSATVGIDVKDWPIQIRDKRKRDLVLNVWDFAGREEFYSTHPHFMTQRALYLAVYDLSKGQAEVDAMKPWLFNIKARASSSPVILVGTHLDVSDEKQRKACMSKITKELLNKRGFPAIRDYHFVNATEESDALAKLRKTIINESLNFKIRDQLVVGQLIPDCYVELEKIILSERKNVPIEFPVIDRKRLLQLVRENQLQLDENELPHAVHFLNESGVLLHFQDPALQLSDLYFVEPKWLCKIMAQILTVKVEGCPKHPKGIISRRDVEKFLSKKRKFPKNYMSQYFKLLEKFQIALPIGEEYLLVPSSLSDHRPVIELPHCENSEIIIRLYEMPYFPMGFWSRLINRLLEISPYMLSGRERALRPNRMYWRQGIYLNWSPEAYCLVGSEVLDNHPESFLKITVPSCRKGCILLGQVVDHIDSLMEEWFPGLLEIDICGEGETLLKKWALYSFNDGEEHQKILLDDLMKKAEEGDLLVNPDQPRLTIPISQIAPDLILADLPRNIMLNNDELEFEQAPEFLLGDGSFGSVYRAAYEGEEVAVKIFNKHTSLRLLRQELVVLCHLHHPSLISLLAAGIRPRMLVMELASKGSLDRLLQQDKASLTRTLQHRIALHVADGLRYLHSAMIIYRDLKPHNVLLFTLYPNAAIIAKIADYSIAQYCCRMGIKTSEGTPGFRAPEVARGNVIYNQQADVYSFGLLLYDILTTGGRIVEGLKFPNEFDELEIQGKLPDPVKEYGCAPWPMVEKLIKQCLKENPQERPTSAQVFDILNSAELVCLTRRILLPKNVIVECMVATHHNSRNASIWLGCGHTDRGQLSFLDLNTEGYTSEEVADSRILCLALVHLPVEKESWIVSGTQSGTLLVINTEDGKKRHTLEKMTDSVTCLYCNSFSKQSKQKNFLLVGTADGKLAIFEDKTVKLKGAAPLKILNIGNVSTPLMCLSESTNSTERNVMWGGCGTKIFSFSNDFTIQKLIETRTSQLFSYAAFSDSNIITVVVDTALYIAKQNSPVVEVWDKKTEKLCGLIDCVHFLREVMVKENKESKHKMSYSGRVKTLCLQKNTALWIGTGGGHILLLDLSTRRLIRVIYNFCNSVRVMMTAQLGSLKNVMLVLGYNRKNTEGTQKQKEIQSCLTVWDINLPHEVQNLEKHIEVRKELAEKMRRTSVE
compound,measurement,setting,value
Cn1cc(-c2ccc3[nH]nc(-c4cc(N5CCOCC5)ncn4)c3c2)cn1 [Example A1],IC50,[1]; [5],2.31 nM
same,IC50,[2],41 nM
Cn1cc(-c2ccc3[nH]nc(-c4cc(N5CCN(S(C)(=O)=O)CC5)ncn4)c3c2)cn1 [Example A3],IC50,[1]; [5],3.28 nM
same,IC50,[2],36 nM
CCN1CCN(c2cc(-c3n[nH]c4ccc(-c5cnn(C)c5)cc34)ncn2)CC1 [Example A8],IC50,[1]; [5],0.76 nM
same,IC50,[2],14 nM
CC(C)Oc1ccc2[nH]nc(-c3cc(N4CCO[C@H](C)C4)ncn3)c2c1 [Example D2],IC50,[1]; [5],5.09 nM
same,IC50,[2],67 nM
same,percent inhibition BRAF V599E,kinases [3],−11%
same,percent inhibition IRAK1,kinases [4],−7%
same,percent inhibition AURKB (Aurora B),kinases [4],9%
same,percent inhibition CDK1/cyclin B,kinases [4],7%
same,percent inhibition CHEK2 (CHK2),kinases [4],1%
same,percent inhibition CLK2,kinases [4],79%
same,percent inhibition DYRK1A,kinases [4],13%
same,percent inhibition JAK3,kinases [4],8%
same,percent inhibition MAPK1 (ERK2),kinases [4],5%
same,percent inhibition MAPK8 (JNK1),kinases [4],28%
CC(C)Oc1ccc2[nH]nc(-c3cc(N4CCOCC4)ncn3)c2c1 [Example D6],IC50,[1]; [5],5.95 nM
same,IC50,[2],96 nM
same,percent inhibition BRAF V599E,kinases [3],2%
same,percent inhibition IRAK1,kinases [4],−1%
same,percent inhibition AURKB (Aurora B),kinases [4],16%
same,percent inhibition CDK1/cyclin B,kinases [4],7%
same,percent inhibition CHEK2 (CHK2),kinases [4],7%
same,percent inhibition CLK2,kinases [4],66%
same,percent inhibition DYRK1A,kinases [4],12%
same,percent inhibition JAK3,kinases [4],5%
same,percent inhibition MAPK1 (ERK2),kinases [4],7%
same,percent inhibition MAPK8 (JNK1),kinases [4],28%
CC(C)Oc1ccc2[nH]nc(-c3cc(N4CCN(CCF)CC4)ncn3)c2c1 [Example D15],IC50,[1]; [5],5.5 nM
same,IC50,[2],34 nM
same,percent inhibition BRAF V599E,kinases [3],28%
same,percent inhibition IRAK1,kinases [4],−3%
same,percent inhibition AURKB (Aurora B),kinases [4],18%
same,percent inhibition CDK1/cyclin B,kinases [4],10%
same,percent inhibition CHEK2 (CHK2),kinases [4],13%
same,percent inhibition CLK2,kinases [4],70%
same,percent inhibition DYRK1A,kinases [4],30%
same,percent inhibition JAK3,kinases [4],9%
same,percent inhibition MAPK1 (ERK2),kinases [4],16%
same,percent inhibition MAPK8 (JNK1),kinases [4],56%
CC(C)Oc1cc2c(-c3cc(N4CCN(S(C)(=O)=O)CC4)ncn3)n[nH]c2cc1F [Example D24],IC50,[1]; [5],3.09 nM
same,IC50,[2],28 nM
CC(C)Oc1cc2c(-c3cc(N4CCN(C)CC4)ncn3)n[nH]c2cc1F [Example D25],IC50,[1]; [5],4.35 nM
same,percent inhibition BRAF V599E,kinases [3],7%
same,percent inhibition IRAK1,kinases [4],15%
same,percent inhibition AURKB (Aurora B),kinases [4],14%
same,percent inhibition CDK1/cyclin B,kinases [4],17%
same,percent inhibition CHEK2 (CHK2),kinases [4],8%
same,percent inhibition CLK2,kinases [4],89%
same,percent inhibition DYRK1A,kinases [4],39%
same,percent inhibition JAK3,kinases [4],8%
same,percent inhibition MAPK1 (ERK2),kinases [4],0%
same,percent inhibition MAPK8 (JNK1),kinases [4],56%
CC(C)Oc1ccc2[nH]nc(-c3cc(N4CCC5(CCNC5=O)CC4)ncn3)c2c1 [Example D32],IC50,[1]; [5],2.31 nM
same,IC50,[2],30 nM
CC(C)Oc1cc2c(-c3cc(N4C[C@@H](C)O[C@@H](C)C4)ncn3)n[nH]c2cc1F [Example D41],IC50,[1]; [5],2.89 nM
same,IC50,[2],22 nM
COC[C@H](C)Oc1ccc2[nH]nc(-c3cc(N4CCOCC4)ncn3)c2c1 [Example H4],IC50,[1]; [5],2.6 nM
same,IC50,[2],33 nM
COCCN1CCN(c2cc(-c3n[nH]c4ccc(OC(C)C)cc34)ncn2)CC1 [Example K10],IC50,[1]; [5],4.9 nM
same,IC50,[2],24 nM
CC(C)N1CCN(c2cc(-c3n[nH]c4ccc(-c5ccn[nH]5)cc34)ncn2)CC1 [Example U25],IC50,[1]; Table U,2.34 nM
COc1ccncc1-c1ccc2[nH]nc(-c3cc(N4C[C@@H](C)O[C@@H](C)C4)ncn3)c2c1 [Example U26],IC50,[1]; Table U,0.75 nM
C[C@@H]1CN(c2cc(-c3n[nH]c4ccc(-c5cn[nH]c5)cc34)ncn2)C[C@H](C)O1 [Example U27],IC50,[1]; Table U,1.35 nM
C[C@@H]1CN(c2cc(-c3n[nH]c4ccc(-c5ccn[nH]5)cc34)ncn2)C[C@H](C)O1 [Example U28],IC50,[1]; Table U,1.44 nM
Cc1n[nH]c(C)c1-c1ccc2[nH]nc(-c3cc(N4CCO[C@H](C)C4)ncn3)c2c1 [Example U29],IC50,[1]; Table U,3.2 nM
FC1(F)CCN(c2cc(-c3n[nH]c4ccc(-c5cccnc5)cc34)ncn2)CC1 [U],IC50,[1]; [5],11.1 nM
CC(C)Cc1ccc2[nH]nc(-c3cc(N4CCOCC4)ncn3)c2c1 [V],IC50,[1]; [5],56 nM
